Measurements from publication PMC4911001, “Synthesis and Biological Evaluation of Novel Phosphatidylcholine Analogues Containing Monoterpene Acids as Potent Antiproliferative Agents” (PLoS ONE, 2016).

Key:
[1] = system: drug resistant LOVO/DX line versus drug sensitive LoVo line; assay: Resistance index (RI), LoVo/DX versus LoVo; type: cell-based, human; settings: RI = IC50 LoVo/DX / IC50 LoVo; 0<RI<2 able to overcome drug resistance; 2<RI<10 moderate ability; RI>10 no influence
Protocol: Using the obtained IC50 values, the resistance indexes (RI) were calculated by dividing the IC50 values of the compounds tested against the cells of drug resistant cell LOVO/DX line by respective values obtained against the cells of drug sensitive LoVo line. According to Harker et al. three categories of the cells could be distinguished: (a) the cells are drug-sensitive—if the ratio approaches 0–2; (b) the cells are moderately drug-resistant—if the ratio ranges from 2 to 10; (c) the cells are markedly drug-resistant—if the ratio is higher than 10.
We calculated also the resistance indexes (RI) by dividing the IC50 values of the compounds tested against the cells of drug resistant cell LoVo/DX by respective values obtained against the drug sensitive LoVo cell line (Table 2). […] Compounds 7a, 7b and 10b have the highest ability to overcome the barrier of resistance (RI = 1.08, 1.06 and 1.09).

[2] = system: A-549 (non-small cell lung cancer); assay: Antiproliferative assay in vitro, SRB test, A-549; type: cell-based, human; settings: mean ± SD of 3–5 independent experiments, n.a. = no activity in concentration of 5, 25, 125, 625 μM
Protocol: (§1) Established in vitro, human cancer cell lines: MV4-11 (human biphenotypic B myelomonocytic leukaemia), A-549 (non-small cell lung cancer), MCF-7 (breast cancer), LoVo (colon cancer), LoVo/DX (colon cancer drug resistant), HepG2 (liver cancer) and BALB/3T3 (normal mice fibroblasts) were used.
(§2) The leukaemia cell line was cultured in RPMI 1640 medium (IIET, Wroclaw, Poland) with supplemented with 2 mM L-glutamine adjusted to contain 1.0 mM sodium pyruvate, 10% fetal bovine serum (all from Sigma-Aldrich Chemie GmbH, Steinheim, Germany). A549, LoVo and LoVo/DX cells were cultured in the mixture of RPMI 1640+Opti-MEM (1:1) (both from Gibco, Scotland, UK), MCF-7 cells in Eagle medium (IIET, Wroclaw, Poland), HepG2 in DMEM medium (Gibco, Scotland, UK), BALB/3T3 in DMEM medium (IIET, Wroclaw, Poland) supplemented with 2 mM L-glutamine and 1.0 mM sodium pyruvate, 10% fetal bovine serum (all from Sigma-Aldrich, Germany). The MCF-7 cell culture was supplemented with 0.8 mg/L of insulin (Sigma-Aldrich Chemie GmbH, Steinheim, Germany) and the LoVo/DX cell culture was supplemented with 0.1 μg/mL of doxorubicin (Accord). All culture media were supplemented with 100 units/mL penicillin, and 100 μg/mL streptomycin (both from Polfa Tarchomin S.A., Warsaw, Poland). All cell lines were grown at 37°C with 5% CO2 humidified atmosphere.
(§3) Prior to usage, the compounds were dissolved in DMSO or in mixture of 99.8% ethanol and DMSO (1:1) to the concentration of 25 or 50 mM, and subsequently diluted in culture medium to reach the required concentrations (ranging from 5 to 625 μM).
(§4) 24 hours before addition of the tested compounds, the cells were plated in 96-well plates at density of 1×10^4 cells per well. An assay was performed after 72 hours exposure to varying concentrations of the tested agents.
(§5) Cytotoxic test MTT was applied for the cytotoxicity screening against leukaemia cells growing in suspension culture and were carried out according to the method described before. Cytotoxic test SRB was applied against A549, MCF-7, LoVo, LoVo/DX, BALB/3T3 and HepG2 cells and were carried out according to the method described before.
(§6) The results were calculated as an IC50 (inhibitory concentration 50)–the concentration of tested agent, which inhibits proliferation of 50% of the cell population. Each compound in each concentration was tested in triplicate in a single experiment, which was repeated 3–5 times.

[3] = system: LoVo/DX (colon cancer drug resistant); assay: Antiproliferative assay in vitro, SRB test, LoVo/DX; type: cell-based, human; settings: 72 hours exposure, doxorubicin-resistant line, mean ± SD of 3–5 independent experiments, n.a. = no activity in concentration of 5, 25, 125, 625 μM
Protocol: as §1, §2, §3, §4, §5, §6

[4] = system: MV4-11 (human biphenotypic B myelomonocytic leukaemia); assay: Antiproliferative assay in vitro, MTT test, MV4-11; type: cell-based; settings: mean ± SD of 3–5 independent experiments, n.a. = no activity in concentration of 5, 25, 125, 625 μM
Protocol: as §1, §2, §3, §4, §5, §6

[5] = system: LoVo (colon cancer); assay: Antiproliferative assay in vitro, SRB test, LoVo; type: cell-based, human; settings: 72 hours exposure, mean ± SD of 3–5 independent experiments, n.a. = no activity in concentration of 5, 25, 125, 625 μM
Protocol: as §1, §2, §3, §4, §5, §6

[6] = system: BALB/3T3 (normal mice fibroblasts); assay: Antiproliferative assay in vitro, SRB test, BALB/3T3; type: cell-based; settings: mean ± SD of 3–5 independent experiments, n.a. = no activity in concentration of 5, 25, 125, 625 μM
Protocol: as §1, §2, §3, §4, §5, §6

[7] = system: tested cancer cell lines; assay: Antiproliferative activity compared with free terpene acids, cancer cell line panel; type: cell-based, human; settings: for antiproliferative activity, fold higher than free acids: compared with free terpene acids; for IC50 values, fold lower than those of free terpene acids 1a, 1b: towards leukaemia, LoVo, LOVO/DX and breast cell lines
Protocol: as §4, §5, §6
The aim of this study was to determine whether a joining the terpenes with PC has impact on their biological activity. Increasing the lipophilicity of active compounds was expected to raise their cytotoxicity. We observed that almost all synthesized compounds were cytotoxic against tested cancer cell lines. […] Upon careful evaluation of data it can be concluded that cytotoxic activity of terpene-modified PCs is depended on the position of terpene moiety in the backbone of PC. […] These compounds stronger than corresponding acids inhibit the proliferation of cancer cells. […] Their IC50 values were more than 9-fold lower than those determined for free terpene acids 1a, 1b towards leukaemia, LoVo, LOVO/DX and breast cell lines. […] Generally, activity of terpene-modified PC increased in the following sequence: 1-isoprenoyl-LPC < diisoprenoyl-PC < monoisoprenoyl-PC.

[8] = system: HepG2 (liver cancer); assay: Antiproliferative assay in vitro, SRB test, HepG2; type: cell-based, human; settings: mean ± SD of 3–5 independent experiments, n.a. = no activity in concentration of 5, 25, 125, 625 μM
Protocol: as §1, §2, §3, §4, §5, §6

[9] = system: MCF-7 (breast cancer); assay: Antiproliferative assay in vitro, SRB test, MCF-7; type: cell-based, human; settings: mean ± SD of 3–5 independent experiments, n.a. = no activity in concentration of 5, 25, 125, 625 μM
Protocol: as §1, §2, §3, §4, §5, §6

[10] = Homo sapiens, A549, 72 hours exposure
[11] = Homo sapiens, MV4-11, 72 hours exposure
[12] = Mus musculus, BALB/3T3, 72 hours exposure
[13] = Homo sapiens, HepG2, 72 hours exposure
[14] = Homo sapiens, MCF7, 72 hours exposure

SMILES | Resistance index (RI) [1] | IC50 [2, 10] [µM] | IC50 ([3]; Homo sapiens, LoVo/DX) [µM] | IC50 [4, 11] [µM] | IC50 ([5]; Homo sapiens, LoVo) [µM] | IC50 [6, 12] [µM] | antiproliferative activity, fold higher than free acids [7] | IC50 [8, 13] [µM] | IC50 [9, 14] [µM] | IC50 values, fold lower than those of free terpene acids 1a, 1b [7] | IC50 ±SD, A-549 ([2]; 72 hours exposure) | IC50 ±SD, HepG2 ([8]; 72 hours exposure) | IC50 ([2]; 72 hours exposure) [µM] | IC50 [3] [µM] | IC50 ([4]; 72 hours exposure) [µM] | IC50 [5] [µM] | IC50 ([6]; 72 hours exposure) [µM] | IC50 ([8]; 72 hours exposure) [µM] | IC50 ([9]; 72 hours exposure) [µM]
CC(C)=CCCC(C)=CC(=O)OC[C@H](COP(=O)([O-])OCC[N+](C)(C)C)OC(=O)C=C(C)CCC=C(C)C (mixture of isomers) [Compound 3a] | 1.12 | 274 ± 9.42 | 279 ± 10.8 | 96.7 ± 33.9 | 248 ± 9.3 | 273 ± 6.76 | 2-3 fold | 285 ± 5 | 236 ± 21.3 |  |  |  |  |  |  |  |  |  | 
CCCCCCCCCCCCCCCC(=O)OC[C@H](COP(=O)([O-])OCC[N+](C)(C)C)OC(=O)C=C(C)CCC=C(C)C (mixture of isomers) [Compound 7a, 1'-palmitoyl-2'-(E)-geranoyl-sn-glycero-3'-phosphocholine + 1'-palmitoyl-2'-(Z)-geranoyl-sn-glycero-3'-phosphocholine] | 1.08 | 72.1 ± 14.4 | 55 ± 2.12 | 60.9 ± 10.9 | 51.1 ± 5.1 | 186 ± 15.2 |  | 200 ± 6.1 | 105 ± 6.51 | more than 9 fold |  |  |  |  |  |  |  |  | 
CC(C)=CCCC(C)=CC(=O)OC[C@@H](O)COP(=O)([O-])OCC[N+](C)(C)C (mixture of isomers) [Compound 9a] |  |  | 526 ± 89.6 | 324 ± 116 | 246 ± 9.9 |  |  |  | 523 ± 97.2 |  | not active | not active |  |  |  |  |  |  | 
CCCCCCCCCCCCCCCC(=O)O[C@H](COC(=O)C=C(C)CCC=C(C)C)COP(=O)([O-])OCC[N+](C)(C)C (mixture of isomers) [Compound 10a] | 1.5 | 49.5 ± 1.88 | 51.9 ± 6.7 | 38.2 ± 9.3 | 34.6 ± 1.6 | 65.8 ± 3.34 |  | 70.3 ± 8.6 | 52.5 ± 5.9 | more than 9 fold |  |  |  |  |  |  |  |  | 
N.N.[Cl][Pt][Cl] [Cisplatin, reference compound] |  |  |  |  |  |  |  |  |  |  |  |  | 8.6 ± 0.7 | 3.17 ± 0.2 | 1.3 ± 0.47 | 2.56 ± 0.35 | 4.2 ± 1.1 | 2.38 ± 0.64 | 8.1 ± 0.03
CC(C)=CCCC(C)=CC(=O)O [Compound 1a, Geranic acid, reference compound] | 1.87 |  | 492 ± 44.5 | 311 ± 96.4 | 263 ± 32 |  |  |  | 447 ± 72 |  | did not showed any reduction of cells growth | did not showed any reduction of cells growth |  |  |  |  |  |  | 
CC(C)=CCCC(C)CC(=O)O (stereo not drawn) [Compound 1b, citronellic acid, reference compound] |  |  | 533 ± 36.7 | 254 ± 68 | 249 ± 26.4 |  |  |  | 453 ± 96 |  | did not showed any reduction of cells growth | did not showed any reduction of cells growth |  |  |  |  |  |  | 
CC(C)=CCCC(C)CC(=O)OC[C@H](COP(=O)([O-])OCC[N+](C)(C)C)OC(=O)CC(C)CCC=C(C)C (stereo partly drawn) [Compound 3b] | 1.3 | 203 ± 47.7 | 251 ± 23.4 | 130 ± 37.8 | 194 ± 22 | 284 ± 6.3 | 2-3 fold | 280.7 ± 1.8 | 243 ± 45.1 |  |  |  |  |  |  |  |  |  | 
CCCCCCCCCCCCCCCC(=O)OC[C@H](COP(=O)([O-])OCC[N+](C)(C)C)OC(=O)CC(C)CCC=C(C)C (stereo partly drawn) [Compound 7b] | 1.06 | 61.2 ± 6 | 57.1 ± 2.5 | 45.7 ± 7.63 | 53.9 ± 2.97 | 112 ± 29.3 |  | 103 ± 11.1 | 155 ± 88.3 | more than 9 fold |  |  |  |  |  |  |  |  | 
CC(C)=CCCC(C)CC(=O)OC[C@@H](O)COP(=O)([O-])OCC[N+](C)(C)C (stereo partly drawn) [Compound 9b] | 1.93 |  | 552 ± 18.5 | 382 ± 24.5 | 287 ± 35.1 |  |  |  |  |  |  |  |  |  |  |  |  |  | 
CCCCCCCCCCCCCCCC(=O)O[C@H](COC(=O)CC(C)CCC=C(C)C)COP(=O)([O-])OCC[N+](C)(C)C (stereo partly drawn) [Compound 10b] | 1.09 | 60.2 ± 6.4 | 57 ± 1.8 | 57.1 ± 6.37 | 52.4 ± 3.6 | 92.9 ± 15.3 |  | 233 ± 14.7 | 209 ± 25.7 | more than 9 fold |  |  |  |  |  |  |  |  | 
COc1cccc2c1C(=O)c1c(O)c3c(c(O)c1C2=O)C[C@@](O)(C(=O)CO)C[C@@H]3O[C@H]1C[C@H](N)[C@H](O)[C@H](C)O1 [Doxorubicin, reference compound] | 55.81 |  | 6.53 ± 0.93 |  | 0.117 ± 0.012 |  |  |  |  |  |  |  |  |  |  |  |  |  | 
